Article PMC10560666, “Four new triterpene saponins from Cephalaria speciosa and their potent cytotoxic and immunomodulatory activities” (Scientific Reports, 2023)
Marks after values point to notes of the source that are not given here.

How the values were obtained:
[1] = test system: HeLa human cervical gland carcinoma cells; experiment: MTT cytotoxicity on HeLa; assay type: cell-based; details: Homo sapiens, HeLa, 48 h, mean ± standard deviation, n = 3, – = Not detected
Method: (§1) The human leukemia monocyte cell line (THP-1), human lung adenocarcinoma cell line (A549), human breast cancer cells (MDA-MB231), human prostate adenocarcinoma cells (PC3), human malignant glioma cell line (U87MG), human cervical gland carcinoma cells (HeLa), human hepatocellular carcinoma cells (HEP-G2) and normal human lung fibroblast cells (CCD-34-LU) as a healthy cell line in our stock used in this study were purchased from American Type Culture Collection (ATCC). THP-1 cells were cultured in Roswell Park Memorial Institute (RPMI 1640) medium and MDA-MB231, PC3, U87 MG, HeLa, HEP-G2, and CCD-34-LU cells cultivated in Dulbecco’s Modified Eagle’s Medium/Nutrient Mixture F-12 (DMEM/F12) (Gibco, USA) medium supplemented with 10% FBS (Gibco, USA), 100U/mL of penicillin 100 µg/mL of streptomycin (Gibco, USA), and 2 mM L-glutamine (Gibco, USA).
(§2) Cytotoxicity of saponins (1–4) and their prosapogenins (2a–4a) were tested against A549, MDA-MB-231, PC-3, U87MG, HeLa, HepG-2 cancer cells and CCD34-Lu healthy cell line using MTT [3-(4,5-dimethylthiazole-2-yl)-2,5-diphenyltetrazolium bromide)] assay (Acros Organics, New Jersey, USA)[11], [23]. For this purpose, 1 × 10^5 cells/mL of all the cell lines were seeded in 96-well plates (Corning, USA) and cultivated in the at 37 °C overnight. After the incubation, the cells were incubated with different concentrations of saponins (50, 5, and 0.5 µg/mL), and doxorubicin (Sigma, USA) (20, 2, and 0.2 µg/mL) for 48 h at 37 °C. Then, the MTT was added as 20 μL (from the stock concentration of 2.5 mg/mL) to all wells and further incubated for 4 h at 37 °C. Following the incubation, the medium was removed and 150 µL DMSO was added to dissolve the formed formazan crystals. After the formazan crystals were completely dissolved, the optical density (OD) was measured at 570 nm with an UV/Vis microplate spectrophotometer (Thermo Fisher Scientific, USA). All data are the results of at least three independent experiments carried out in triplicate. Data are presented as mean ± standard error of the mean (SEM) of samples. The IC50 value was calculated using the GraphPad Prism 8 (USA) program based on the calculated percent viability values and absorbance values. The percentage of viability was determined by Eq. (1):1 %Viablecells=absorbanceoftreatedcells-absorbanceofblank/absorbanceofcontrol-absorbanceofblank×100

[2] = test system: A549 human lung adenocarcinoma cell line; experiment: MTT cytotoxicity on A549; assay type: cell-based; details: Homo sapiens, A549, 48 h, mean ± standard deviation, n = 3, – = Not detected
Method: as §1, §2

[3] = test system: U87MG human malignant glioma cell line; experiment: MTT cytotoxicity on U87MG; assay type: cell-based; details: Homo sapiens, U-87 MG, 48 h, mean ± standard deviation, n = 3, – = Not detected
Method: as §1, §2

[4] = test system: THP-1 derived macrophage cells; experiment: Macrophage polarization by flow cytometry (CD11b, CD80, CD163 MFI); assay type: cell-based, human; details: saponin 3 µg/mL, 24 h, PMA-differentiated THP-1, mean ± SD, n = 3
Method: To differentiate THP-1 cells into M0-THP-1, cells were seeded at an initial concentration of 1 × 10^6 cells/mL in 6-well plates (Corning, USA) and treated with 15 ng/mL phorbol 12-myristate 13—acetate (PMA, Sigma USA). Then incubate at 5% CO2, 37 °C for 48 h[24]. To evaluate the potential of saponins with/without infectious bronchitis virus (IBV) D274 antigen on macrophage polarization, THP-1 cells were treated with saponins at 3 µg/mL and then incubated for 24 h with or without 4 µL of inactivated IBV D274 antigens (final titer of 1 HA). […] Based on the results of our previous research, the saponin concentration was selected as a non-cytotoxic concentration. At the end of the incubation period, the cells were collected by trypsinization and washed three times with PBS. Following, 1 µL of PE anti-human CD80 (Biolegend, CA), FITC anti-human CD163 (Biolegend, CA), and FITC anti-human CD11b (Biolegend, CA) antibodies were added into the cells pellet and incubated for 45 min at room temperature in the dark. The cells pellets underwent two PBS washes following incubation. Finally, the cells were subsequently analyzed by flow cytometry (BD Accuri, C5). 1 × 10^4 cells were counted for each sample group using flow cytometry. All data are the results of at least three independent experiments carried out in triplicate. Data are presented as mean ± standard error of the mean (SEM) of samples. The untreated stained macrophage cells with anti-human CD80, FITC anti-human CD163, and FITC anti-human CD11b were compared with the results of treated cells to obtain from M0 polarization to M1 and M2 or both.
Figure 2 (a) Saponins without antigen treatment, (b) Saponins treated with antigen. THP-1 cells were treated with 15 ng/ml PMA and 3 µg/ml saponins and 1 HA titer of IBV D274 induced in the saponins with antigen group for 24 h incubation. The macrophage polarization was determined with flow cytometry. Each value represents the mean ± standard deviation of three independents measurements. (P < 0.05*, P < 0.01**, P < 0.001***).

[5] = test system: MDA-MB-231 human breast cancer cells; experiment: MTT cytotoxicity on MDA-MB-231; assay type: cell-based; details: Homo sapiens, MDA-MB-231, 48 h, mean ± standard deviation, n = 3, – = Not detected
Method: as §1, §2

[6] = test system: CCD-34Lu normal human lung fibroblast cells; experiment: MTT cytotoxicity on CCD-34Lu healthy cells; assay type: cell-based; details: Homo sapiens, Fibroblast, 48 h, mean ± standard deviation, n = 3, – = Not detected
Method: as §1, §2

[7] = test system: HepG-2 human hepatocellular carcinoma cells; experiment: MTT cytotoxicity on HepG-2; assay type: cell-based; details: Homo sapiens, HepG2, 48 h, mean ± standard deviation, n = 3, – = Not detected
Method: as §1, §2

[8] = test system: PC-3 human prostate adenocarcinoma cells; experiment: MTT cytotoxicity on PC-3; assay type: cell-based; details: Homo sapiens, 48 h, mean ± standard deviation, n = 3, – = Not detected
Method: as §1, §2

[9] = test system: THP-1 originated-macrophage; experiment: MTT cytotoxicity on THP-1 originated macrophages; assay type: cell-based, human; details: Homo sapiens, THP-1, 48 h, mean ± standard deviation, n = 3, – = Not detected
[10] = with inactivated IBV D274 antigen (1 HA)

SMILES | IC50 [1] [µM] | IC50 [2] [µM] | IC50 [3] [µM] | MFI of CD 11b (M0 marker) [4, 10] | MFI of CD80 (M1 marker) [4, 10] | MFI of CD163 (M2 marker) [4, 10] | MFI of CD 11b (M0 marker) ([4]; without antigen) | MFI of CD80 (M1 marker) ([4]; without antigen) | MFI of CD163 (M2 marker) ([4]; without antigen) | IC50 [5] [µM] | IC50 [6] [µM] | IC50 [7] [µM] | IC50 [8] [µM] | IC50 [9] [µM]
C[C@@H]1O[C@@H](O[C@H]2[C@H](O[C@H]3CC[C@@]4(C)C(CC[C@]5(C)C4CC=C4C6CC(C)(C)CC[C@]6(C(=O)O[C@@H]6O[C@H](CO[C@@H]7O[C@H](CO)[C@@H](O)[C@H](O)[C@H]7O)[C@@H](O)[C@H](O)[C@H]6O)CC[C@]45C)C3(C)C)O[C@H](CO)[C@H](O)[C@@H]2O)[C@H](O)[C@H](O)[C@H]1O (stereo partly drawn) [Compound 2, 3-O-α-L-rhamnopyranosyl-(1 → 2)-β-D-galactopyranosyl-oleanoic acid-28-O-β-D-glucopyranosyl-(1 → 6)-β-D-glucopyranosyl ester] | > 45.9 | > 45.9 | > 45.9 | 33,053.20 ± 951.60 | 4516.00 ± 223.23 | 7441.00 ± 423.23 | 29,875.39 ± 3311.75 | 3,629.71 ± 142.80 | 6,206.45 ± 185.19 | > 45.9 | > 45.9 | > 45.9 | > 45.9 | > 45.9
C[C@@H]1O[C@@H](O[C@H]2[C@H](O[C@H]3CC[C@@]4(C)C(CC[C@]5(C)C4CC=C4C6CC(C)(C)CC[C@]6(C(=O)O[C@@H]6O[C@H](CO[C@@H]7O[C@H](CO)[C@@H](O)[C@H](O)[C@H]7O)[C@@H](O)[C@H](O)[C@H]6O)CC[C@]45C)[C@]3(C)CO)O[C@H](CO)[C@H](O)[C@@H]2O)[C@H](O)[C@H](O)[C@H]1O (stereo partly drawn) [Compound 4, 3-O-α-L-rhamnopyranosyl-(1 → 2)-β-D-galactopyranosyl-hederagenin-28-O-β-D-glucopyranosyl-(1 → 6)-β-D-glucopyranosyl ester] | > 45.2 | > 45.2 | > 45.2 | 32,925.30 ± 947.75 | 4593.32 ± 951.60 | 8203.00 ± 246.09** | 27,324.70 ± 2398.39 | 4,380.00 ± 169.38 | 6,755.64 ± 206.67** | > 45.2 | > 45.2 | > 45.2 | > 45.2 | > 45.2
C[C@@H]1O[C@@H](O[C@H]2[C@H](O[C@H]3CC[C@@]4(C)C(CC[C@]5(C)C4CC=C4C6CC(C)(C)CC[C@]6(C(=O)O[C@@H]6O[C@H](CO[C@@H]7O[C@H](CO)[C@@H](O)[C@H](O)[C@H]7O)[C@@H](O)[C@H](O)[C@H]6O)CC[C@]45C)[C@]3(C)CO)OC[C@@H](O)[C@@H]2O)[C@H](O)[C@H](O)[C@H]1O (stereo partly drawn) [Compound 3, 3-O-α-L-rhamnopyranosyl-(1 → 2)-β-D-xylopyranosyl-hederagenin-28-O-β-D-glucopyranosyl-(1 → 6)-β-D-glucopyranosyl ester] | > 46.5 | > 46.5 | > 46.5 | 29,545.10 ± 906.36 | 4564.51 ± 138.81 | 8303.34 ± 245.1** | 28,092.69 ± 1435.47 | 4,549.73 ± 913.74 | 6,655.82 ± 206.67* | > 46.5 | > 46.5 | > 46.5 | > 46.5 | > 46.5
C[C@@H]1O[C@@H](O[C@H]2[C@H](O[C@H]3CC[C@@]4(C)C(CC[C@]5(C)C4CC=C4C6CC(C)(C)CC[C@]6(C(=O)O)CC[C@]45C)C3(C)C)O[C@H](CO)[C@H](O)[C@@H]2O)[C@H](O)[C@H](O)[C@H]1O (stereo partly drawn) [Compound 2a, 3-O-α-L-rhamopyranosyl-(1 → 2)-β-D-galactopyranosyl oleanoic acid] | > 65.4 | 20.8 ± 0.46 | > 65.4 | 28,297.32 ± 808.92 | 4727.00 ± 221.96 | 7408.64 ± 224.16 | 26,304.81 ± 2370.42 | 3,962.53 ± 246.09 | – | 24.3 ± 2.65 | > 65.4 | > 65.4 | > 65.4 | 37.3 ± 8.17
COc1cccc2c1C(=O)c1c(O)c3c(c(O)c1C2=O)C[C@@](O)(C(=O)CO)C[C@@H]3O[C@H]1C[C@H](N)[C@H](O)[C@H](C)O1 [Doxorubicin, doxorubicin, reference compound] | 23.95 ± 0.02 | 40.01 ± 0.02 | 11.09 ± 0.02 | – | – | – | – | – | – | 70 ± 0.02 | 33.98 ± 0.02 | 36.85 ± 0.02 | 4.23 ± 0.02 | 6.84 ± 0.18
C[C@@H]1O[C@@H](O[C@H]2[C@H](O[C@H]3CC[C@@]4(C)C(CC[C@]5(C)C4CC=C4C6CC(C)(C)CC[C@]6(C(=O)O)CC[C@]45C)[C@]3(C)CO)O[C@H](CO)[C@H](O)[C@@H]2O)[C@H](O)[C@H](O)[C@H]1O (stereo partly drawn) [Compound 1, 3-O-α-L-rhamopyranosyl-(1 → 2)-β-D-galactopyranosyl-hederagenin] | 48.1 ± 4.56 | 8.59 ± 0.19 | > 64 | 31,644.21 ± 849.30 | 4062.43 ± 906.36 | – | 28,644.50 ± 849.33 | 4,536.00 ± 239.19 | 6,400.83 ± 196.02* | 15.1 ± 1.02 | > 64 | > 64 | > 64 | 27.6 ± 0.52
